Measurements: ChEMBL document CHEMBL1126986, “Nonsteroidal inhibitors of human type I steroid 5-alpha-reductase” (J Med Chem, 1993)

Biological target: T1, 3-oxo-5-alpha-steroid 4-dehydrogenase 2 (Homo sapiens, UniProt P31213)
T1 sequence (P31213 whole entry): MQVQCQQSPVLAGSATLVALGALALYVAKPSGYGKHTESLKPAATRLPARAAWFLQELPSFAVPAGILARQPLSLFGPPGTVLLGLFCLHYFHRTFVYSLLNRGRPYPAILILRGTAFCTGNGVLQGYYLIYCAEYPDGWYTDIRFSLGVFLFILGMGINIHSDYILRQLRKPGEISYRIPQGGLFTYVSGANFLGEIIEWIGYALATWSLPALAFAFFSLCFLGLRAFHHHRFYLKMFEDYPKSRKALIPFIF
Assay: Compound was tested for inhibition of Type II 5-alpha-reductase in Human Prostate Homogenates (HPH)

| SMILES | IC50 |
| --- | --- |
| CC(C)(C)NC(=O)[C@H]1CC[C@H]2[C@@H]3CC=C4C=C(C(=O)O)CC[C@]4(C)[C@H]3CC[C@]12C [EPRISTERIDE] | 8 nM |
| CN1C(=O)CC[C@@H]2c3ccc(Cl)cc3CC[C@H]21 [BEXLOSTERIDE] | > 10000 nM |

Biological target: T2, 3-oxo-5-alpha-steroid 4-dehydrogenase 1 (Homo sapiens, UniProt P18405)
T2 sequence (P18405 whole entry): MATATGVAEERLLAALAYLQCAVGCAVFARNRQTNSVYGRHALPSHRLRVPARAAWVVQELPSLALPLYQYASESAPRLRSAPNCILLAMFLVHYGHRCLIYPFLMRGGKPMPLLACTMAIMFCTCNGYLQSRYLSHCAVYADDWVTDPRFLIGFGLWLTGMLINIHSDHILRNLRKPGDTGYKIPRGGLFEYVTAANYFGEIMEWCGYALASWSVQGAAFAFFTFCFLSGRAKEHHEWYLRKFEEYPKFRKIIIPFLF
Assay: In vitro inhibition of DHT production in Hs 68 (human genital fibroblast) cells.

| SMILES | IC50 |
| --- | --- |
| O=C1CCC2=C(CCc3cc(Cl)ccc32)N1 | 460 nM |
| O=C1CCC2=C(CCc3cccc(F)c32)N1 | 10000 nM |
| O=C1CCC2=C(CCc3ccc(F)cc32)N1 | 2300 nM |
| CN1C(=O)CC[C@]2(C)c3ccc(Cl)cc3CC[C@@H]12 | 17 nM |
| CN1C(=O)CCC2=C1CCc1cc(Cl)ccc12 | 30 nM |
| CN1C(=O)CC[C@@H]2c3ccc(Cl)cc3CC[C@@H]21 | 41 nM |
| Cc1ccc2c(c1)CC[C@@H]1[C@@H]2CCC(=O)N1C | 11 nM |
| COc1ccc2c(c1)CC[C@@H]1[C@@H]2CCC(=O)N1C | 120 nM |
| CN1C(=O)CC[C@@H]2c3ccc(F)cc3CC[C@H]21 | 35 nM |
| C[C@]12CCC(=O)N[C@@H]1CCc1cc(Cl)ccc12 | 1800 nM |
| CN1C(=O)CCC2(C)C1=CCc1cc(Cl)ccc12 (stereo not drawn) | 120 nM |
| CN1C(=O)CC[C@@H]2c3ccc(F)cc3CC[C@@H]21 | 320 nM |
| O=C1CCC2=C(CCc3c(F)cccc32)N1 | 3200 nM |
| O=C1CC[C@@H]2c3ccc(Cl)cc3CC[C@H]2N1 | 60 nM |
| CC(C)(C)NC(=O)[C@H]1CC[C@H]2[C@@H]3CC=C4C=C(C(=O)O)CC[C@]4(C)[C@H]3CC[C@]12C [EPRISTERIDE] | 7500 nM |
| CN1C(=O)CC[C@@H]2c3ccc(Cl)cc3CC[C@H]21 [BEXLOSTERIDE] | 8 nM |
| CN1C(=O)CC[C@@H]2c3ccccc3CC[C@H]21 | 560 nM |
| CC12CCC(=O)NC1=CCc1cc(Cl)ccc12 (stereo not drawn) | 3600 nM |
| O=C1CCC2=C(CCc3ccccc32)N1 | 6500 nM |
| O=C1CCC2=C(CCc3cc(F)ccc32)N1 | 600 nM |

Biological target: T2, 3-oxo-5-alpha-steroid 4-dehydrogenase 1
Assay: Compound was tested for inhibition of Type I 5-alpha-reductase in Human genital skin (Hs68) foreskin fibroblast cells.
Format: cell-based

| SMILES | IC50 |
| --- | --- |
| CC(C)(C)NC(=O)[C@H]1CC[C@H]2[C@@H]3CC[C@H]4NC(=O)C=C[C@]4(C)[C@H]3CC[C@]12C [FINASTERIDE] | 62 nM |
